Results from ChEMBL document CHEMBL2203246, “Design and biological evaluation of imidazo[1,2-a]pyridines as novel and potent ASK1 inhibitors” (Bioorg Med Chem Lett, 2012).
Activity calls are given as the source filed them. The rule behind the calls is not given here.

Key:
physchem = details: buffer, pH 7.4
Description: Lipophilicity, log D of the compound at pH 7.4

[1] = target: T1, Mitogen-activated protein kinase kinase kinase 5 (Homo sapiens, UniProt Q99683); assay: Competitive inhibition of human recombinant N-terminal FLAG-tagged ASK1 expressed in baculovirus infected […] cells after 60 mins by scintillation counting analysis in presence of [gamma-33P]ATP
T1 sequence (Q99683 whole entry): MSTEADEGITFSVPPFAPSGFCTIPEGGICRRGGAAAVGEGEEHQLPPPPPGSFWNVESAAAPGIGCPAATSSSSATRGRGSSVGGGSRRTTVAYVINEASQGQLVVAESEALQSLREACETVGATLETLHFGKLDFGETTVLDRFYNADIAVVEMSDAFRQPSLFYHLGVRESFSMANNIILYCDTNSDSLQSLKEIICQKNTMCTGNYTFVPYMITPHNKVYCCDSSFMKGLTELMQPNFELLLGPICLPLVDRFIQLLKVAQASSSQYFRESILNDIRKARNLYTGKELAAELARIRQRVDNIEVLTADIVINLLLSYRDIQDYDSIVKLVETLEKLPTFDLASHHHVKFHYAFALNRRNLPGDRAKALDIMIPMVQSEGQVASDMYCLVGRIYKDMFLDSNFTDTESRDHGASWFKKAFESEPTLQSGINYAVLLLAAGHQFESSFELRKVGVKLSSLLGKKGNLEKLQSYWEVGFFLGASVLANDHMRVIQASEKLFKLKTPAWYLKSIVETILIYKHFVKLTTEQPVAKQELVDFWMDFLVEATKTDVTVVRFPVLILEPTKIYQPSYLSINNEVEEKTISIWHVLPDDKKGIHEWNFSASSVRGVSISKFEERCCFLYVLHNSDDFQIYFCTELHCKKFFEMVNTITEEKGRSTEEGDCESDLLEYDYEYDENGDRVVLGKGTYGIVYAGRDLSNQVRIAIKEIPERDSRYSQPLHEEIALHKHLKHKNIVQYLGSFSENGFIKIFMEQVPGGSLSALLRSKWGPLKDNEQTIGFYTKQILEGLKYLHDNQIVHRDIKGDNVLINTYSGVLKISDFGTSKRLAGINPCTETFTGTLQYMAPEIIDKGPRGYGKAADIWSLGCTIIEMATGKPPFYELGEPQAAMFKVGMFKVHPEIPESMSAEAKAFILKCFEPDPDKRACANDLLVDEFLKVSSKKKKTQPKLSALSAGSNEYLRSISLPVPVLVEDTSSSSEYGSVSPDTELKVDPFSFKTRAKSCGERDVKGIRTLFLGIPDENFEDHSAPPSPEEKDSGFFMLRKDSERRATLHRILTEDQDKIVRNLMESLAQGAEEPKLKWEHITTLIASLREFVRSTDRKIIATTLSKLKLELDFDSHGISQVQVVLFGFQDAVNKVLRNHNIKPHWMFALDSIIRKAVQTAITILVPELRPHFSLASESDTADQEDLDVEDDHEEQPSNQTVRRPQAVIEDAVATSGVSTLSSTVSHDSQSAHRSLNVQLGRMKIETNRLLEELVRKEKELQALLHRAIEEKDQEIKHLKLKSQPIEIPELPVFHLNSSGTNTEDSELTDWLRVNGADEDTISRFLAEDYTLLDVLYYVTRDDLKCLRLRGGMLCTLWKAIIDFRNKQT

INS1 [2] = assay: Inhibition of ASK1 in rat INS1 ([…]) cells assessed as downregulation of streptozotocin-induced JNK phosphorylation at 0.3 to 10 uM incubated for 1 hr prior to streptozotocin induction measured after 1 hr by Western blot analysis; format: cell-based
INS1 [3] = assay: Inhibition of ASK1 in rat INS1 ([…]) cells assessed as downregulation of streptozotocin-induced p38 phosphorylation incubated for 1 hr prior to streptozotocin induction measured after 1 hr by Western blot analysis; format: cell-based
[4] = target: Serine/threonine-protein kinase B-raf (Homo sapiens, UniProt P15056); assay: Inhibition of BRAF
[5] = target: T2, Mitogen-activated protein kinase kinase kinase 6 (Homo sapiens, UniProt O95382); assay: Inhibition of ASK2
T2 sequence (O95382 whole entry): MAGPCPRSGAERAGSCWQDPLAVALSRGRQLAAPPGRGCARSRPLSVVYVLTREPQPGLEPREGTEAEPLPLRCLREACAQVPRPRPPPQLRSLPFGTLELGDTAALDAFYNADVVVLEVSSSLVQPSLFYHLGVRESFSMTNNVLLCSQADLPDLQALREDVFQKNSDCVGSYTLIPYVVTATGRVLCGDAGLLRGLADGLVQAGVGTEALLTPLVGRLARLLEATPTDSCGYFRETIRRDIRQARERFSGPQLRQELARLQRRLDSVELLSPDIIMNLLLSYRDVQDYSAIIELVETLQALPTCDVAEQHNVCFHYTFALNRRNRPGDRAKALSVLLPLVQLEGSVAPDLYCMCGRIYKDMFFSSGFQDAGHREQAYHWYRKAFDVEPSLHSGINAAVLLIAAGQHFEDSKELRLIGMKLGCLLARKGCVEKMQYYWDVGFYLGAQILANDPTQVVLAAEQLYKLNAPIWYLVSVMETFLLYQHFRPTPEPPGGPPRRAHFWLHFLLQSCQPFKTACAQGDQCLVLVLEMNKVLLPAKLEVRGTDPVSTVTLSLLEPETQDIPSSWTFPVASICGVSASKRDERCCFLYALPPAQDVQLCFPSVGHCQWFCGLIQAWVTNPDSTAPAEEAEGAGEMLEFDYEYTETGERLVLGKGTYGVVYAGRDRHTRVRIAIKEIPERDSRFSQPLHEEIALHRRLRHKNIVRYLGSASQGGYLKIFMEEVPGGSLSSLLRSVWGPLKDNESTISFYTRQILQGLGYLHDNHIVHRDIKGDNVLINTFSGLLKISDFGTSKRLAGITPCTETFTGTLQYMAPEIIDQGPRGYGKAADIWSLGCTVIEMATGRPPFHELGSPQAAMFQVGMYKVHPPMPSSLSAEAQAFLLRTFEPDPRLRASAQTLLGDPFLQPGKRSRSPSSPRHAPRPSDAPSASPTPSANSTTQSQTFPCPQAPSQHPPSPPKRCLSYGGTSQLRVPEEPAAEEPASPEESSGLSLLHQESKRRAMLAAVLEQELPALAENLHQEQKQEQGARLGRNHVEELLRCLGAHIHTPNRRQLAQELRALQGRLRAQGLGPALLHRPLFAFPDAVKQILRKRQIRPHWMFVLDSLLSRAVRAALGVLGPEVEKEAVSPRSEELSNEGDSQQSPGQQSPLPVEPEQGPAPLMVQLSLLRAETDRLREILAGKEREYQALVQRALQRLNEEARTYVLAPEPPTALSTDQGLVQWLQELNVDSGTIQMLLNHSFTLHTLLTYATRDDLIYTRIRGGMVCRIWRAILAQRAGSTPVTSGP

[6] = target: Mitogen-activated protein kinase 14 (Homo sapiens, UniProt Q16539); assay: Inhibition of p38alpha
[7] = target: Protein kinase C theta type (Homo sapiens, UniProt Q04759); assay: Inhibition of PKCtheta
[8] = target: Mitogen-activated protein kinase 8 (Homo sapiens, UniProt P45983); assay: Inhibition of JNK1
[9] = target: T3, Inhibitor of nuclear factor kappa-B kinase subunit beta (Homo sapiens, UniProt O14920); assay: Inhibition of IKKbeta
T3 sequence (O14920 whole entry): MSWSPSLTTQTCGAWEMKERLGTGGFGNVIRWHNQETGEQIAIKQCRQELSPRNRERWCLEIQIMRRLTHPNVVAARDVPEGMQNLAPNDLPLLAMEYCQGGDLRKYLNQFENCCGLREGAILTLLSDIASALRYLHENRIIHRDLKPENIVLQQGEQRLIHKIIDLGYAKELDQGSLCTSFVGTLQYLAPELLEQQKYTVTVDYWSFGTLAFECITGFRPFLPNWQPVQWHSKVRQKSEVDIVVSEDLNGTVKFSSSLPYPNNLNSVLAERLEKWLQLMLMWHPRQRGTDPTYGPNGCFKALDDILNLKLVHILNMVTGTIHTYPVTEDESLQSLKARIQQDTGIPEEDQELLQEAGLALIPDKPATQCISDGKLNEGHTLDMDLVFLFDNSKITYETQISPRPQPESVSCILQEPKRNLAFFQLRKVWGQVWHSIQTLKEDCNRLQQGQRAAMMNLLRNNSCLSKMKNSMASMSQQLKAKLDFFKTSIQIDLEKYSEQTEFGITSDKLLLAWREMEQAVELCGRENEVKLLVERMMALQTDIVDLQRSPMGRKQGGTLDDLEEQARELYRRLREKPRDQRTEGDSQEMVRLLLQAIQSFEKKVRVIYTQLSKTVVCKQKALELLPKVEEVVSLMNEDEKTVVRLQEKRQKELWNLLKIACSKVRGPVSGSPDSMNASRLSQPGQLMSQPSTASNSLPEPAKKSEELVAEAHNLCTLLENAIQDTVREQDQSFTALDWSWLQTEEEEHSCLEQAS

[10] = target: Glycogen synthase kinase-3 beta (Homo sapiens, UniProt P49841); assay: Inhibition of GSK3beta
[11] = target: Mitogen-activated protein kinase 3 (Homo sapiens, UniProt P27361); assay: Inhibition of ERK1
[12] = target: Mitogen-activated protein kinase kinase kinase 1 (Homo sapiens, UniProt Q13233); assay: Inhibition of MEKK1
Sequence of Mitogen-activated protein kinase kinase kinase 1 (Q13233 whole entry): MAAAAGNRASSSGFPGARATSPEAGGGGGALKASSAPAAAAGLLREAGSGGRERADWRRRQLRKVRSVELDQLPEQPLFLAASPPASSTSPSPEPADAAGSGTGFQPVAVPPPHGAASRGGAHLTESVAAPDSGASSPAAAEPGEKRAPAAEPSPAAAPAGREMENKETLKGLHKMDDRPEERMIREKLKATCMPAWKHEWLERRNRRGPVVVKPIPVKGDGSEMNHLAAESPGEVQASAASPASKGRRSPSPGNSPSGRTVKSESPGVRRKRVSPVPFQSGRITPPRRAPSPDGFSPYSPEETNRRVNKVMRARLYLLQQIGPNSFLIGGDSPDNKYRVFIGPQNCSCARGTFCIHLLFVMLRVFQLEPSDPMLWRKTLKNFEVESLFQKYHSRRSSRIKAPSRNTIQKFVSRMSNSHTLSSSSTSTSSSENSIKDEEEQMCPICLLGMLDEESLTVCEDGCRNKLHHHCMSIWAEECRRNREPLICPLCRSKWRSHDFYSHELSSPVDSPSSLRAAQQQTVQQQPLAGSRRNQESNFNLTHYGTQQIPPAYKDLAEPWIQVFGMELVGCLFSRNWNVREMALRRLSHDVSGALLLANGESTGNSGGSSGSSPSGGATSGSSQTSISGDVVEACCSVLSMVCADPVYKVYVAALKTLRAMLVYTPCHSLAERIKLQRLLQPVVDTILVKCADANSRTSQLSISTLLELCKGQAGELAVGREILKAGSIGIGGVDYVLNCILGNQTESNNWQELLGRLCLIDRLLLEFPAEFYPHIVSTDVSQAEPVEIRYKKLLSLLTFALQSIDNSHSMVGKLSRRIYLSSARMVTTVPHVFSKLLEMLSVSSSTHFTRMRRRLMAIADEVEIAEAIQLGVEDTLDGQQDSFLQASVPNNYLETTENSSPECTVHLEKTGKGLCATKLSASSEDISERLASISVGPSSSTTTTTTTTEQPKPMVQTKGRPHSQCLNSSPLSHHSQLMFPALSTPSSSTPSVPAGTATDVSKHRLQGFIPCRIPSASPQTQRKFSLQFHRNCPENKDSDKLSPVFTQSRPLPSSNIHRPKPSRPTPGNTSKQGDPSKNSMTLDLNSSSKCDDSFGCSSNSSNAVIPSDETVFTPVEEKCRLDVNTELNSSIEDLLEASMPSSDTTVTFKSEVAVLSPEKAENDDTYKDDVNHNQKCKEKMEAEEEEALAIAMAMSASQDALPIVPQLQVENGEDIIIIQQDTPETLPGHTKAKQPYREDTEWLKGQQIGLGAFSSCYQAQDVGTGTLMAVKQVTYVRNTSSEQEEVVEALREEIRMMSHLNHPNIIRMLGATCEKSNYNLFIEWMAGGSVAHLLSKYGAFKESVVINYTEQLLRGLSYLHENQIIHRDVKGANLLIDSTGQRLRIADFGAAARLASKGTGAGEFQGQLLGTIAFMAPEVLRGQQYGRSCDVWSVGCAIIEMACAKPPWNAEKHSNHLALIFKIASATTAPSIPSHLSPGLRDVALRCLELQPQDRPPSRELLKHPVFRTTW

Sequence of Mitogen-activated protein kinase 14 (Q16539 whole entry): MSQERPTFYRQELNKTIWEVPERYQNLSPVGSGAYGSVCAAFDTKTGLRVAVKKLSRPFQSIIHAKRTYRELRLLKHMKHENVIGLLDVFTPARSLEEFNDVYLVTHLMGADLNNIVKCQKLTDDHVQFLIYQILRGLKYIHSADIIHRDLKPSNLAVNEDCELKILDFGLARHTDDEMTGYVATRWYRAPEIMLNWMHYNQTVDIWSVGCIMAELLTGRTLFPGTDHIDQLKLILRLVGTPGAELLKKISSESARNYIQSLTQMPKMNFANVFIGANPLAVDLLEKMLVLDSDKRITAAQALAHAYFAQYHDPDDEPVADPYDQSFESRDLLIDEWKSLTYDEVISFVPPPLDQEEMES
Sequence of Glycogen synthase kinase-3 beta (P49841 whole entry): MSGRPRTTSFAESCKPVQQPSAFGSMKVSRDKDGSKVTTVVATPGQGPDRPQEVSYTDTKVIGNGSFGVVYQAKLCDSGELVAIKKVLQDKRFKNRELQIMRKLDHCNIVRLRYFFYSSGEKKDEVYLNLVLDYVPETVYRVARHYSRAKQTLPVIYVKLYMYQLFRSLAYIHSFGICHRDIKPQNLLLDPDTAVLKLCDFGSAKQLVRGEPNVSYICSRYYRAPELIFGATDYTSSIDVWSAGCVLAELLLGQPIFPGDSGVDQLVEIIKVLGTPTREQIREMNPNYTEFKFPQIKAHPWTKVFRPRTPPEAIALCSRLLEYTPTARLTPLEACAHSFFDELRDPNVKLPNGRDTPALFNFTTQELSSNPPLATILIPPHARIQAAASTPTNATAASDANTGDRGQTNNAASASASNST
Sequence of Protein kinase C theta type (Q04759 whole entry): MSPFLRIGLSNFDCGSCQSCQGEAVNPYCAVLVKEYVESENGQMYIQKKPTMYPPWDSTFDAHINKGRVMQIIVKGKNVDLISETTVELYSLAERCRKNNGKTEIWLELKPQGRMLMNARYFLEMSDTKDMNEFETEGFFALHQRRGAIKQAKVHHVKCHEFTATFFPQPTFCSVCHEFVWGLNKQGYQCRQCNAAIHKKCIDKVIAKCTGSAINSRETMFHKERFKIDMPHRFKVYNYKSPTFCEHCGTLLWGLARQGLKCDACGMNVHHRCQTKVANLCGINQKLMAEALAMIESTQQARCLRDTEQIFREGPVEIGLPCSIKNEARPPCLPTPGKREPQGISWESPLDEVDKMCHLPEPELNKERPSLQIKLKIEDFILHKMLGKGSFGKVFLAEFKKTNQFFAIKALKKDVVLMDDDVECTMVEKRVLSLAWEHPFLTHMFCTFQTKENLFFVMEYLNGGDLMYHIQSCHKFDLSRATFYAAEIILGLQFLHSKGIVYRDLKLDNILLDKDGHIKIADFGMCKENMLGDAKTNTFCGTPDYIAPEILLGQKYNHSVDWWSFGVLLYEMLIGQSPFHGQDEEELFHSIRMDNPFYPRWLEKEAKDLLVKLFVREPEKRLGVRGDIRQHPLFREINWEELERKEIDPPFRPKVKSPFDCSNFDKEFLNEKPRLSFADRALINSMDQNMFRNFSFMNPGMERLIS
Sequence of Mitogen-activated protein kinase 8 (P45983 whole entry): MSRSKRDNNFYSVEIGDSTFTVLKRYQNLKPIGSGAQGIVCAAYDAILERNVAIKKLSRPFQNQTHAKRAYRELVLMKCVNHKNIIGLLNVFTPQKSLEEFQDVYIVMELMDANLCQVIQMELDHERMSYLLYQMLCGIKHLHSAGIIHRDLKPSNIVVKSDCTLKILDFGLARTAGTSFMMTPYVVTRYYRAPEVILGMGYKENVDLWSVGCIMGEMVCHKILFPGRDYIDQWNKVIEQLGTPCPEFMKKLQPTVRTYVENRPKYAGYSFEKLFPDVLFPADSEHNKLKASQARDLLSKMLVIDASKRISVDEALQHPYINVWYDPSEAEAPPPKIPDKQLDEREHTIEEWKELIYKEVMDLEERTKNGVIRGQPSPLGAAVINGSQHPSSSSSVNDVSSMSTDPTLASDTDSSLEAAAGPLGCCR
Sequence of Serine/threonine-protein kinase B-raf (P15056 whole entry): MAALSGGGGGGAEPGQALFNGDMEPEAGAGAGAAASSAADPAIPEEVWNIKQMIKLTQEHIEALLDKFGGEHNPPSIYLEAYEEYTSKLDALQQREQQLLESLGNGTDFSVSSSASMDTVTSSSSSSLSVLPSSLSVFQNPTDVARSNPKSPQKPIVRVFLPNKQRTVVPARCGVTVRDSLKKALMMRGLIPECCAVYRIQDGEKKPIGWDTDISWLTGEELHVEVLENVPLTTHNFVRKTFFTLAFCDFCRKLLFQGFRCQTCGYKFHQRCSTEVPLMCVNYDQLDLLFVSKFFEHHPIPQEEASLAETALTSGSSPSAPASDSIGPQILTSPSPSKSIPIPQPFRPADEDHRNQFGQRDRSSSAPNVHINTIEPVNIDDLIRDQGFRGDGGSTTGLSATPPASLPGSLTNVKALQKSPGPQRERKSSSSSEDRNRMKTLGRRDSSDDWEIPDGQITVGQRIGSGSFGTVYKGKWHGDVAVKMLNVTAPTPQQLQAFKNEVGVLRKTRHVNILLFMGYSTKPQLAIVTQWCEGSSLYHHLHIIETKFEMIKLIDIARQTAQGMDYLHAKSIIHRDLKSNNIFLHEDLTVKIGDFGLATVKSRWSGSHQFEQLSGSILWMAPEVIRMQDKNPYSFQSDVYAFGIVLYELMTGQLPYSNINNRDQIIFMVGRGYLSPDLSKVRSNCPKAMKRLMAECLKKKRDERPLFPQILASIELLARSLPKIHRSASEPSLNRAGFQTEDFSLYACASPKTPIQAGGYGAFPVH
Sequence of Mitogen-activated protein kinase 3 (P27361 whole entry): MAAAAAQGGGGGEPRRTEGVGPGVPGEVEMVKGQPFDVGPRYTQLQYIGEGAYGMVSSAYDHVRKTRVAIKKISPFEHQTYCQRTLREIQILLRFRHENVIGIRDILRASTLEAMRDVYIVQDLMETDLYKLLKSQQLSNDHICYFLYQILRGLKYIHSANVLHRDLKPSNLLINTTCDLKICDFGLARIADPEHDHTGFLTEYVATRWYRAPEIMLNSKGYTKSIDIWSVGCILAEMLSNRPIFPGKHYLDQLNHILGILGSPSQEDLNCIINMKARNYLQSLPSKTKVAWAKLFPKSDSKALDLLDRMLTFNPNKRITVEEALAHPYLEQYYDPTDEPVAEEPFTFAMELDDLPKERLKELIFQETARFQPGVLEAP

Compound	logD (physchem)	IC50 [1] [nM]	other results
Cc1ccc2nc(NC(=O)c3ccc(C(C)(C)C)cc3)cn2c1	3.78	22	–
CC(C)(O)c1ccc(C(=O)Nc2cn3cc(-n4ccnc4)ccc3n2)cc1	1.27	70	–
CC(C)(CO)c1ccc(C(=O)Nc2cn3cc(-n4ccnc4)ccc3n2)cc1	1.62	32	–
CC(C)(C)c1ccc(C(=O)Nc2cn3cc(CO)ccc3n2)cc1	2.83	129	–
CC(C)(C)c1ccc(C(=O)Nc2cn3cc(Br)ccc3n2)cc1	4.17	21	–
CC(C)(C)c1ccc(C(=O)Nc2cn3cc(-c4cccnc4)ccc3n2)cc1	3.6	21	–
CC(C)(C)c1ccc(C(=O)Nc2cn3cc(-c4ccccc4)ccc3n2)cc1	4.83	82	–
CC(C)(C)c1ccc(C(=O)Nc2cn3cc(F)ccc3n2)cc1	3.55	34	–
CC(C)(C)c1ccc(C(=O)Nc2cn3cc(-n4cccc4)ccc3n2)cc1	–	30	–
CC(C)(C)c1ccc(C(=O)Nc2cn3cc(-n4ccnc4)ccc3n2)cc1 [listing 1 of 3 here]	3.16	–	–
CC(C)(C)c1ccc(C(=O)Nc2cn3cc(Cl)ccc3n2)cc1	4.04	16	–
CNCc1ccc2nc(NC(=O)c3ccc(C(C)(C)C)cc3)cn2c1	2.4	870	–
CC(C)(C)c1ccc(C(=O)Nc2cn3cc(-n4ccnc4)ccc3n2)cc1 [listing 2 of 3 here]	–	–	inhibition (INS1 [2]): Active; inhibition (INS1 [3]): Dose-dependent effect
Cc1ccc2nc(NC(=O)c3ccc(C(C)(C)C)cc3)sc2c1	5.08	260	–
CC(C)(C)c1ccc(C(=O)Nc2cn3cc(-n4ccnc4)ccc3n2)cc1 [listing 3 of 3 here]	–	–	IC50 [4]: > 10000 nM; IC50 [5]: 510 nM; IC50 [6]: > 10000 nM; IC50 [7]: > 10000 nM; IC50 [8]: > 10000 nM; IC50 [9]: > 10000 nM; IC50 [10]: > 10000 nM; IC50 [11]: > 10000 nM; IC50 [12]: > 10000 nM
